Measured values: patent US20040191287A1, “Fumigation process for stored food grains” (priority 2003, published 2004)
Like-named read-outs stand apart in the source and are kept apart here.

Assays:
[1] = test system: R. dominica mixed-age cultures; conditions: 200 mg/liter, 26 ± 2° C., 19.5 liter tin container with 12 kg of wheat
Procedure: (§2) Further fumigation tests were carried out with allyl acetate at 200 mg/litre and with three different exposure periods of 24, 48 and 72 hours in 19.5 litre tin containers filled with 12 kg of wheat. Mixed- age cultures of R. dominica, S. oryzae and T. castaneum were used as the test insects.
(§3) Mixed-age cultures of S. oryzae and R. dominica were obtained by allowing 300 adults of the individual species to breed in about 1 kg of wheat in a 2-liter glass jar. To obtain mixed- age culture of T. castaneum about 300 adults were released into 1 kg of whole-wheat flour plus 5% dried yeast in a 2-litre glass jar. The insect culture jars were kept under the rearing temperature conditions i.e., 25±1° C. for S. oryzae and T. castaneum and 30±1° C. for R. dominica. The infested grain/flour after an incubation period of 7 weeks was used for the experiment. The cultures were weighed into 50 gm aliquots in 21 cm×14 cm size cloth bags. One set of three test insect bags comprising R. dominica, S. oryzae and T. castaneum were kept at the bottom of the container before filling the grain. […] Another set of three-test insect bags was kept on the top layer of grains. The grain-filled containers were, then, fumigated with allyl acetate for 24, 48 and 72 hours at 26±2° C. The commodity was treated with allyl acetate at the dosage of 200 mg/litre. Required quantity of allyl acetate was measured in 10 and 25 ml measuring cylinder and quickly poured on to 5 gm of absorbent cotton wool kept over the grain layer in the tin container. Immediately after dosing, the container was closed with the lid tightly and sealed along the rim with adhesive tape. At the end of the exposure period, the lid was removed to aerate the commodity and the test insect bags were retrieved and the contents transferred to 300 ml capacity glass bottles. Insect survivors in the samples were recorded at weekly intervals for 8 weeks. Mortality in fumigated batches was calculated based on emergence/survivors in controls.

[2] = cited from earlier work
[3] = test system: T. castaneum mixed-age cultures; test: Fumigation in 125 litre plastic drums with 100 kg wheat, with/without perforated tubing (Example 6); assay type: in vivo, Tribolium castaneum; conditions: without perforated tubing, 200 mg/liter, 26 ± 2° C., 125 liter drum; for mortality at 200 µg/mL: Tribolium castaneum, 72 h, read-out: % mortality based on survivors in untreated controls; for Insect Survivors: 72 hours
Procedure: In another set of experiments, fumigations were carried out in the plastic drums with 100 kg of wheat under similar conditions mentioned above except that there was no perforated tubing inserted into the grain and the total dose of allyl acetate (27 ml of liquid) was dispensed at one location, that is, on the top layer of the grain. In both sets of experiments, there were 3 replicates for control and fumigated batches.
(§1) Insect mortality in fumigated batches was determined by taking into consideration of survivors in respective controls as 100%.

[4] = test system: T. castaneum mixed-age cultures; conditions: 72 hours at 26±2° C., 19.5 liter tin container with 12 kg wheat
Text: (§4) Fumigation experiments with allyl acetate have been conducted in 19.5 litre capacity tin containers with mixed- age cultures of R. dominica, S. oryzae and T. castaneum as the test insects.
(§5) Mixed-age cultures of S. oryzae and R. dominica were obtained by allowing 300 adults of the individual species to breed in about 1 kg of wheat in a 2-liter glass jar. To obtain mixed- age culture of T. castaneum about 300 adults were released into 1 kg of whole-wheat flour plus 5% dried yeast in a 2-litre glass jar. The insect culture jars were kept under the rearing temperature conditions i.e., 25±1° C. for S. oryzae and T. castaneum and 30±1° C. for R. dominica.
(§6) The infested grain/flour after an incubation period of 7 weeks was used for the experiment. The cultures were weighed into 50 gm aliquots in 21 cm×14 cm size cloth bags. One set of three test insect bags comprising R. dominica, S. oryzae and T. castaneum were kept at the bottom of the container before filling the grain.
(§7) Another set of three-test insect bags was kept on the top layer of grains. The grain-filled containers were, then, fumigated with allyl acetate for 72 hours at 26±2° C. There were 6 doses ranging from 100 to 800 mg/litre with 3 replicates/dosage along with untreated controls. Required quantity of allyl acetate was measured in 10 and 25 ml measuring cylinder and quickly poured on to 5 gm of absorbent cotton wool kept over the grain layer in the tin container.
(§8) Immediately after dosing, the container was closed with the lid tightly and sealed along the rim with adhesive tape. At the end of 72 hour, the lid was removed to aerate the commodity and the test insect bags were retrieved and the contents transferred to 300 ml capacity glass bottles.
(§9) Insect survivors in the samples were recorded at weekly intervals for 8 weeks. Mortality in fumigated batches was calculated based on emergence/survivors in controls.

[5] = test system: T. castaneum mixed-age cultures; conditions: 200 mg/liter, 26 ± 2° C., 19.5 liter tin container with 12 kg of wheat
Procedure: as §2, §3

Cryptolestes sp. = test: LD 50 / LD 99 of allyl acetate to adults, probit analysis (Example 2); assay type: in vivo; conditions: 24-hour exposure at 26 ± 2° C.
Procedure: Assays with allyl acetate against the adults of four species of stored grain insects namely S. oryzae, R. dominica, T. castaneum and Cryptolestes sp. were carried out to determine LD 50 and LD 99 doses. […] Cryptolestes sp. was reared on wheat feed. […] The insects were exposed to different doses of allyl acetate for 24 hour in 0.85-liter desiccators to yield 20-100% mortality. There were 6 replicates for each dose along with equal number of untreated control. […] Mortality of treated insects was assessed at the end of 14 days and it was corrected for natural control mortality. The data for the individual species were subjected to probit analysis following the method of Finney (1971) to arrive at LD 50 and LD 99 values.

[6] = cited from earlier work; remark: listed apart in the source
[7] = test system: R. dominica mixed-age cultures; conditions: 72 hours at 26±2° C., 19.5 liter tin container with 12 kg wheat
Text: as §4, §5, §6, §7, §8, §9

[8] = test system: S. oryzae mixed-age cultures; conditions: 200 mg/liter, 26 ± 2° C., 19.5 liter tin container with 12 kg of wheat
Procedure: as §2, §3

[9] = test system: S. oryzae mixed-age cultures; test: Fumigation in 125 litre plastic drums with 100 kg wheat, with/without perforated tubing (Example 6); assay type: in vivo, Sitophilus oryzae; conditions: for Insect Survivors / mortality at 200 µg/mL: S. oryzae, 200 mg/liter, 72 hours, 26 ± 2° C., 125 liter drum, 100 kg wheat; for mortality at 200 µg/mL: 72 h, read-out: % mortality based on survivors in untreated controls
Procedure: In another set of experiments, fumigations were carried out in the plastic drums with 100 kg […] acetate (27 ml of liquid) was dispensed at one location, that is, on the top layer of the grain. In both sets of experiments, there were 3 replicates for control and fumigated batches.
as §1

[10] = test system: S. oryzae mixed-age cultures; conditions: 72 hours at 26±2° C., 19.5 liter tin container with 12 kg wheat
Text: as §4, §5, §6, §7, §8, §9

[11] = test system: T. castaneum mixed-age cultures; test: Fumigation in 125 litre plastic drums with 100 kg wheat, with/without perforated tubing (Example 6); assay type: in vivo, Tribolium castaneum; conditions: for Insect Survivors / mortality at 200 µg/mL: T. castaneum, with perforated tubing, 200 mg/liter, 72 hours, 26 ± 2° C., 125 liter drum, 100 kg wheat; for mortality at 200 µg/mL: 72 h, read-out: % mortality based on survivors in untreated controls
rat = conditions: 1 hr; cited from earlier work
[12] = test insect bag at bottom layer
[13] = test insect bag at middle layer

C=CCOC(C)=O [allyl acetate]
6 mm Hg: Vapour pressure at 27° C. (mm Hg) ([6]; 27° C.)
0: No. of survivors from 50 g lots of mixed-age cultures following treatment ([1]; exposure period 24 hour) | No. of survivors from 50 g lots of mixed-age cultures following treatment ([1]; exposure period 48 hour) | No. of survivors from 50 g lots of mixed-age cultures following treatment ([1]; exposure period 72 hour) | Insect Survivors [3, 13] | No. of survivors from 50 g lots of mixed-age cultures following treatment ([4]; 100 mg/liter) | No. of survivors from 50 g lots of mixed-age cultures following treatment ([4]; 150 mg/liter) | No. of survivors from 50 g lots of mixed-age cultures following treatment ([4]; 200 mg/liter) | No. of survivors from 50 g lots of mixed-age cultures following treatment ([4]; 400 mg/liter) | No. of survivors from 50 g lots of mixed-age cultures following treatment ([4]; 600 mg/liter) | No. of survivors from 50 g lots of mixed-age cultures following treatment ([4]; 800 mg/liter) | No. of survivors from 50 g lots of mixed-age cultures following treatment ([5]; exposure period 24 hour) | No. of survivors from 50 g lots of mixed-age cultures following treatment ([5]; exposure period 48 hour) | No. of survivors from 50 g lots of mixed-age cultures following treatment ([5]; exposure period 72 hour) | No. of survivors from 50 g lots of mixed-age cultures following treatment ([7]; 100 mg/liter) | No. of survivors from 50 g lots of mixed-age cultures following treatment ([7]; 150 mg/liter) | No. of survivors from 50 g lots of mixed-age cultures following treatment ([7]; 200 mg/liter) | No. of survivors from 50 g lots of mixed-age cultures following treatment ([7]; 400 mg/liter) | No. of survivors from 50 g lots of mixed-age cultures following treatment ([7]; 600 mg/liter) | No. of survivors from 50 g lots of mixed-age cultures following treatment ([7]; 800 mg/liter) | No. of survivors from 50 g lots of mixed-age cultures following treatment ([8]; exposure period 72 hour) | Insect Survivors ([9]; with perforated tubing, test insect bag at bottom layer) | Insect Survivors ([9]; with perforated tubing, test insect bag at middle layer) | Insect Survivors ([9]; with perforated tubing, test insect bag at top layer) | Insect Survivors ([9]; without perforated tubing, test insect bag at top layer) | No. of survivors from 50 g lots of mixed-age cultures following treatment ([10]; 200 mg/liter) | No. of survivors from 50 g lots of mixed-age cultures following treatment ([10]; 400 mg/liter) | No. of survivors from 50 g lots of mixed-age cultures following treatment ([10]; 600 mg/liter) | No. of survivors from 50 g lots of mixed-age cultures following treatment ([10]; 800 mg/liter) | Insect Survivors [11, 12] | Insect Survivors [11, 13] | Insect Survivors ([11]; test insect bag at top layer)
1: No. of survivors from 50 g lots of mixed-age cultures following treatment ([10]; 150 mg/liter)
39.00: Insect Survivors [3, 12]
(99.9) %: % mortality based on survivors in controls ([8]; exposure period 24 hour) | % mortality based on survivors in controls ([8]; exposure period 48 hour) | % mortality based on survivors in controls ([10]; 150 mg/liter)
0%: mortality at 200 µg/mL ([3]; bottom layer)
100%: mortality at 200 µg/mL ([3]; middle layer) | mortality at 200 µg/mL ([9]; Sitophilus oryzae, with perforated tubing, bottom layer) | mortality at 200 µg/mL ([9]; Sitophilus oryzae, with perforated tubing, middle layer) | mortality at 200 µg/mL ([9]; Sitophilus oryzae, with perforated tubing, top layer) | mortality at 200 µg/mL ([9]; Sitophilus oryzae, without perforated tubing, top layer) | mortality at 200 µg/mL ([11]; Tribolium castaneum, bottom layer) | mortality at 200 µg/mL ([11]; Tribolium castaneum, middle layer) | mortality at 200 µg/mL ([11]; Tribolium castaneum, top layer)
11.5: No. of survivors from 50 g lots of mixed-age cultures following treatment ([10]; 100 mg/liter)
200 mg per litre of space: dosage for 100% kill of all stages ([9]; Sitophilus oryzae, all stages, preferred exposure period 72 hours) | dosage for 100% kill of all stages ([11]; Tribolium castaneum, all stages, preferred exposure period 72 hours)
99.4%: mortality at 200 µg/mL ([3]; top layer)
Toxic by inhalation,: Mammalian Toxicity ([2]; routes of toxicity: inhalation, contact and ingestion)
5.44 (4.29; 15.6) mg/Liter: LD 99 (mg/Liter) (Cryptolestes sp.)
(100) %: % mortality based on survivors in controls ([1]; exposure period 24 hour) | % mortality based on survivors in controls ([1]; exposure period 48 hour) | % mortality based on survivors in controls ([1]; exposure period 72 hour) | % mortality based on survivors in controls ([4]; 100 mg/liter) | % mortality based on survivors in controls ([4]; 150 mg/liter) | % mortality based on survivors in controls ([4]; 200 mg/liter) | % mortality based on survivors in controls ([4]; 400 mg/liter) | % mortality based on survivors in controls ([4]; 600 mg/liter) | % mortality based on survivors in controls ([4]; 800 mg/liter) | % mortality based on survivors in controls ([5]; exposure period 24 hour) | % mortality based on survivors in controls ([5]; exposure period 48 hour) | % mortality based on survivors in controls ([5]; exposure period 72 hour) | % mortality based on survivors in controls ([7]; 100 mg/liter) | % mortality based on survivors in controls ([7]; 150 mg/liter) | % mortality based on survivors in controls ([7]; 200 mg/liter) | % mortality based on survivors in controls ([7]; 400 mg/liter) | % mortality based on survivors in controls ([7]; 600 mg/liter) | % mortality based on survivors in controls ([7]; 800 mg/liter) | % mortality based on survivors in controls ([8]; exposure period 72 hour) | % mortality based on survivors in controls ([10]; 200 mg/liter) | % mortality based on survivors in controls ([10]; 400 mg/liter) | % mortality based on survivors in controls ([10]; 600 mg/liter) | % mortality based on survivors in controls ([10]; 800 mg/liter)
95.3%: mortality at 200 µg/mL ([9]; Sitophilus oryzae, without perforated tubing, bottom layer)
Insoluble: Solubility in water [6]
22.33: Insect Survivors ([9]; without perforated tubing, test insect bag at bottom layer)
Irritating to eyes, respiratory: Mammalian Toxicity (irritation) ([2]; eyes, respiratory system and skin)
(98.9) %: % mortality based on survivors in controls ([10]; 100 mg/liter)
LC 50 rat inhalation 1000 ppm/1 hr: LC 50 rat inhalation (rat)
99.9%: mortality at 200 µg/mL ([9]; Sitophilus oryzae, without perforated tubing, middle layer)
0.33: Insect Survivors ([3]; test insect bag at top layer) | No. of survivors from 50 g lots of mixed-age cultures following treatment ([8]; exposure period 24 hour) | No. of survivors from 50 g lots of mixed-age cultures following treatment ([8]; exposure period 48 hour) | Insect Survivors ([9]; without perforated tubing, test insect bag at middle layer)
